Experimental data: US20120277209A1, “PYRAZINE COMPOUNDS AS PHOSPHODIESTERASE 10 INHIBITORS” (Amgen Inc., priority 2009, published 2012)

Target: PDE10 (UniProt Q9Y233)
Experiment: PDE10 enzyme inhibition, IMAP TR-FRET assay (MPDE10A7 Enzyme Activity and Inhibition)
Assay type: biochemical
Conditions: IC50 class against PDE10; read-out: IC50
Summary of the method: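 IMAP TR-FRET read-out of PDE10 hydrolysis of fluorescein-cAMP or -cGMP (60 min, room temperature), after a 30 min compound-enzyme preincubation. Enzyme source was PDE10A or tissue homogenate. Averaged IC50s are reported as five range classes.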

Row | Compound | IC50 [nM]
1 | OC[C@@H]1CCN(c2nccnc2Oc2ccc(Nc3nc4ccccc4s3)cc2)C1 [Example 85, (R)-(1-(3-(4-(benzo[d]thiazol-2-ylamino)phenoxy)pyrazin-2-yl)pyrrolidin-3-yl)methanol] | < 25
2 | N#CC1CN(c2nccnc2Oc2ccc(Nc3nc4ccccc4s3)cc2)C1 [Example 93, 1-(3-(4-(benzo[d]thiazol-2-yl-amino)phenoxy)pyrazin-2-yl)-azetidine-3-carbonitrile] | 25 to 100
3 | COC(=O)C1CCN(c2nccnc2Oc2ccc(Nc3nc4ccccc4s3)cc2)C1 (stereo not drawn) [Example 96, methyl 1-(3-(4-(benzo[d]thiazol-2-ylamino)phenoxy)pyrazin-2-yl)pyrrolidine-3-carboxylate] | < 25
4 | COC[C@H](C)NC(=O)c1nccnc1Oc1ccc(C(=O)c2nc3ccccc3[nH]2)cc1 [Example 256, (S)-3-(4-(1H-benzo[d]imidazole-2-carbonyl)phenoxy)-N-(1-methoxypropan-2-yl)pyrazine-2-carboxamide] | 25 to 100
5 | COc1cncc(-c2nccnc2Oc2ccc(C(=O)c3nc4ccccc4[nH]3)cc2)c1 [Example 118, (1H-benzo[d]imidazol-2-yl)(4-(3-(5-methoxypyridin-3-yl)pyrazin-2-yloxy)phenyl)methanone] | < 25
6 | O=C1C=C(c2nccnc2Oc2ccc(Nc3nc4ccccc4s3)c(F)c2)CCC1 [Example 136, 3-(3-(4-(benzo[d]thiazol-2-ylamino)-3-fluorophenoxy)pyrazin-2-yl)cyclohex-2-enone] | < 25
7 | (6-fluoro-1-methyl-1H-benzo[d]imidazol-2-yl)(4-(3-(tetrahydro-2H-pyran-4-yl)pyrazin-2-yloxy)phenyl)methanone and (5-fluoro-1-methyl-1H-benzo[d]imidazol-2-yl)(4-(3-(tetrahydro-2H-pyran-4-yl)pyrazin-2-yloxy)phenyl)methanone [Example 185] | < 25
8 | O=C(c1ccc(Oc2nccnc2C(=O)NCCO)cc1)c1nc2ccccc2[nH]1 [Example 258, 3-(4-(1H-benzo[d]imidazole-2-carbonyl)phenoxy)-N-(2-hydroxyethyl)pyrazine-2-carboxamide] | 25 to 100
9 | CC(=O)N1CCC(c2nccnc2Oc2ccc(Nc3nc4ccccc4s3)cc2)CC1 [Example 225, 1-(4-(3-(4-(BENZO[D]THIAZOL-2-YLAMINO)PHENOXY)PYRAZIN-2-YL)PIPERIDIN-1-YL)ETHANONE] | < 25
10 | O=C(c1ccc(Oc2nccnc2[C@H]2CCC[C@@H](O)C2)cc1)c1nc2ccccc2[nH]1 (racemic) [Example 189, (rac)-cis-(1H-benzo[d]imidazol-2-yl)(4-(3-(3-hydroxycyclohexyl)pyrazin-2-yloxy)phenyl)methanone] | < 25
11 | N#CC1CCN(c2nccnc2Oc2ccc(Nc3nc4ccccc4s3)cc2)C1 (stereo not drawn) [Example 84, 1-(3-(4-(benzo[d]thiazol-2-ylamino)phenoxy)pyrazin-2-yl)pyrrolidine-3-carbonitrile] | < 25
12 | CC(=O)OC(C)C(=O)N1CCC(c2nccnc2Oc2ccc(C(=O)c3nc4ccccc4[nH]3)cc2)CC1 (stereo not drawn) [Example 238, 1-(4-(3-(4-(1H-benzo[d]imidazole-2-carbonyl)phenoxy)pyrazin-2-yl)piperidin-1-yl)-1-oxopropan-2-yl acetate] | < 25
13 | O=C(c1ccc(Oc2nccnc2C2CCN(CCF)CC2)cc1)c1nc2ccccc2[nH]1 [Example 226, (1H-BENZO[D]IMIDAZOL-2-YL)(4-(3-(1-(2-FLUOROETHYL)PIPERIDIN-4-YL)PYRAZIN-2-YLOXY)PHENYL)METHANONE] | < 25
14 | COc1ncccc1-c1nccnc1Oc1ccc(C(=O)c2nc3ccccc3[nH]2)cc1 [Example 122, (1H-benzo[d]imidazol-2-yl)(4-(3-(2-methoxypyridin-3-yl)pyrazin-2-yloxy)phenyl)methanone] | < 25
15 | c1ccc2sc(Nc3ccc(Oc4nccnc4N4CCC5(CC4)OCCO5)cc3)nc2c1 [Example 99, N-(4-(3-(1,4-dioxa-8-azaspiro[4.5]-decan-8-yl)pyrazin-2-yloxy)phenyl)-benzo[d]thiazol-2-amine] | 25 to 100
16 | Cc1ncccc1-c1nccnc1Oc1ccc(C(=O)c2nc3ccccc3n2C)cc1 [Example 110, (1-methyl-1H-benzo[d]imidazol-2-yl)(4-(3-(2-methylpyridin-3-yl)pyrazin-2-yloxy)phenyl)methanone] | 25 to 100
17 | CC(O)(C1CCN(c2nccnc2Oc2ccc(Nc3nc4ccccc4s3)cc2)CC1)C(F)(F)F (stereo not drawn) [Example 73, 2-(1-(3-(4-(benzo[d]thiazol-2-ylamino)phenoxy)pyrazin-2-yl)piperidin-4-yl)-1,1,1-trifluoropropan-2-ol] | 250 to 1000
18 | O=S1(=O)CCN(c2nccnc2Oc2ccc(Nc3nc4ccccc4s3)cc2)CC1 [Example 75, N-(4-((3-(1,1-dioxido-4-thio-morpholinyl)-2-pyrazinyl)oxy)-phenyl)-1,3-benzothiazol-2-amine] | 250 to 1000
19 | O=C(c1ccc(Oc2nccnc2OCC(F)(F)F)cc1)c1nc2ccccc2[nH]1 [Example 164] | 250 to 1000
20 | O=C(c1ccc(Oc2nccnc2OCCc2ccccn2)cc1)c1nc2ccccc2[nH]1 [Example 177, (1H-benzo[d]imidazol-2-yl)(4-(3-(2-(pyridin-2-yl)ethoxy)pyrazin-2-yloxy)phenyl)methanone] | 25 to 100

Same assay, conditions: PDE10 enzyme inhibition; average IC50 data for each compound; read-out: Average IC50

Row | Compound | IC50 [nM]
21 | O=C1CCC(c2nccnc2Oc2ccc(C(=O)c3nc4ccccc4[nH]3)cc2)CC1 [drawing 911] | 0.199
22 | CC1(C)CCC(=O)[C@@H](c2nccnc2Oc2ccc(C(=O)c3nc4ccccc4[nH]3)cc2)C1 | 154
23 | OCCN1CCN(c2nccnc2Oc2ccc(Nc3nc4ccccc4s3)cc2)CC1 [drawing 720] | 8.44
24 | Fc1cc(Oc2nccnc2Cl)ccc1Nc1nc2ccccc2s1 [drawing 836] | 614
25 | O=C(c1ccc(Oc2nccnc2N2CC(O)C2)cc1)c1nc2ccccc2[nH]1 | 6.94
26 | O=C(c1ccc(Oc2nccnc2C2CCN(CCF)CC2)cc1)c1nc2ccccc2[nH]1 [drawing 963] | 2.5
27 | N#Cc1cccc(-c2nccnc2Oc2ccc(C(=O)c3nc4ccccc4[nH]3)cc2)c1 [drawing 756] | 42
28 | O=C(c1ccc(Oc2nccnc2[C@@H]2CCC[C@H](O)C2)cc1)c1nc2ccccc2[nH]1 (stereo in doubt) | 1.02
29 | COc1ccccc1-c1nccnc1Oc1ccc(C(=O)c2nc3ccccc3[nH]2)cc1 [drawing 944] | 2.9
30 | FCCN1CCC(c2nccnc2Oc2ccc(Nc3nc4ccccc4s3)cc2)CC1 [drawing 962] | 3.24
31 | CC(=O)N1CC(c2nccnc2Oc2ccc(C(=O)c3nc4ccccc4[nH]3)cc2)C1 [drawing 925] | 2.71
32 | CN(c1ccc(Oc2nccnc2C2CCOCC2)cc1)c1nc2ccccc2s1 [drawing 870] | 11.8
33 | c1ccc2[nH]c(Nc3ccc(Oc4nccnc4C4CCOCC4)cc3)nc2c1 [drawing 863] | 0.101
34 | O=C1C=C(c2nccnc2Oc2ccc(Nc3nc4ccccc4s3)c(F)c2)CCC1 [drawing 998] | 22.1
35 | N#CC1CN(c2nccnc2Oc2ccc(Nc3nc4ccccc4s3)cc2)C1 [drawing 776] | 6.75
36 | CC(=O)N1CC=C(c2nccnc2Oc2ccc(C(=O)c3nc4ccccc4[nH]3)cc2)CC1 [drawing 751] | 1.16
37 | O=C(c1ccc(Oc2nccnc2C2CCCC2)cc1)c1nc2ccccc2[nH]1 [drawing 949] | 1.76
38 | CC(C)COc1nccnc1Oc1ccc(C(=O)c2nc3ccccc3[nH]2)cc1 [drawing 845] | 26.2

Row | Compound | IC50 [nM]
39 | Fc1cccc2nc(Nc3ccc(Oc4nccnc4Cl)cc3)sc12 [drawing 826] | 751
40 | Cc1ncccc1-c1nccnc1Oc1ccc(C(=O)c2nc3ccccc3[nH]2)cc1 [drawing 947] | 2.07
41 | O=C(c1ccc(Oc2nccnc2C2CCNCC2)cc1)c1nc2ccccc2[nH]1 [drawing 999] | 7.7
42 | O[C@H]1CCC[C@H](c2nccnc2Oc2ccc(Nc3nc4ccccc4s3)cc2)C1 [drawing 913] | 1.34
43 | c1cncc(-c2nccnc2Oc2ccc(Nc3nc4ccccc4s3)cc2)c1 [drawing 823] | 10.4
44 | O=C(c1ccc(Oc2nccnc2C(=O)NCCc2ccccn2)cc1)c1nc2ccccc2[nH]1 [drawing 795] | 8.08
45 | COc1ncccc1-c1nccnc1Oc1ccc(Nc2nc3ccccc3s2)cc1 [drawing 886] | 3.67
46 | Cc1ccc(-c2nccnc2Oc2ccc(Nc3nc4ccccc4s3)cc2)cn1 [drawing 764] | 11.3
47 | CC(=O)N1CCC(c2nccnc2Oc2ccc(Nc3nc4ccccc4s3)cc2F)CC1 [drawing 984] | 1.12
48 | O=C(c1ccc(Oc2nccnc2C2CCOCC2)cc1)c1nc2ccc(F)cc2[nH]1 [drawing 987] | 0.593
49 | Fc1cc(Oc2cnccn2)ccc1Nc1nc2ccccc2s1 [drawing 878] | 777
50 | O=C(c1ccc(Oc2nccnc2N2CC[C@H](CO)C2)cc1)c1nc2ccccc2[nH]1 | 2.54
51 | COCC(=O)N1CCC(c2nccnc2Oc2ccc(Nc3nc4ccccc4s3)cc2)CC1 [drawing 946] | 0.024
52 | N#C[C@@H]1CCN(c2nccnc2Oc2ccc(C(=O)c3nc4ccccc4[nH]3)cc2)C1 (stereo in doubt) | 1.32
53 | C[C@]1(O)CC[C@H](c2nccnc2Oc2ccc(C(=O)c3nc4ccccc4[nH]3)cc2)CC1 [drawing 922] | 0.748
54 | O=C(c1ccc(Oc2nccnc2Oc2cccnc2)cc1)c1nc2ccccc2[nH]1 [drawing 851] | 51.5
55 | CN1CCC2(CCN(c3nccnc3Oc3ccc(C(=O)c4nc5ccccc5[nH]4)cc3)CC2)C1=O | 12.8

Same assay, conditions: PDE10 enzyme inhibition; chiral compounds separated from racemic mixtures; read-out: IC50

Row | Compound | IC50 [nM]
56 | C[C@@H]1CN(c2nccnc2Oc2ccc(Nc3nc4ccccc4s3)cc2)CC(=O)N1 [Example 267, (R)-4-(3-(4-(benzo[d]thiazol-2-ylamino)phenoxy)pyrazin-2-yl)-6-methylpiperazin-2-one] | < 25
57 | N#C[C@@H]1CCN(c2nccnc2Oc2ccc(C(=O)c3nc4ccccc4[nH]3)cc2)C1 [Example 261, (R)-1-(3-(4-(1H-benzo[d]imidazole-2-carbonyl)phenoxy)pyrazin-2-yl)pyrrolidine-3-carbonitrile] | < 25
